Results as given in patent publication US20090068290A1, “BIFEPRUNOX DOSES FOR TREATING SCHIZOPHRENIA” (priority 2006, published 2009).

What was measured:
Format in all cases: in vivo, human
[1] = system: patients with chronic schizophrenia; assay: Adverse events incl. EPS TEAEs, Clinical Study Four
Protocol: OTHER SECONDARY OBJECTIVE: To evaluate the long-term safety and tolerability of bifeprunox versus placebo.
(§1) METHODOLOGY: This study was a multinational, multicenter, randomized, double-blind, parallel-group, placebo-controlled, fixed-dose study. The study consisted of a 3- to 6-day antipsychotic-free run-in period, after which patients were randomised to 6 months of double-blind treatment with fixed doses of bifeprunox (20 mg/day (BX20) or 30 mg/day (BX30)) or placebo (PBO). Patients allocated to the BX groups were up-titrated from 0.25 mg/day over 7 days (BX20) or 8 days (BX30), and then continued on these doses for the remainder of the study. […] At predetermined time points, blood samples were obtained for drug concentration analysis of BX and its major metabolites (3′- and 4′-sulfate conjugates of BX), and pharmaco-economic assessments were performed.

[2] = system: patients with chronic schizophrenia; assay: PANSS negative subscale score, Clinical Study Four; conditions: FAS, ANCOVA; for PANSS negative subscale, Adjusted Mean Change from Baseline (LS mean): LOCF; for mean PANSS negative subscale scores versus PBO, per-visit LOCF analysis: both BX doses
Protocol: as §1

[3] = Weight, BMI and waist measurement, Clinical Study Four
Protocol: as §1

[4] = BX20 (bifeprunox 20 mg), Last post-Baseline observation, APTS
[5] = BX20 (bifeprunox 20 mg), Month 3, APTS
[6] = BX20 (bifeprunox 20 mg), Month 6, APTS
[7] = BX20 (bifeprunox 20 mg), Week 6, APTS
[8] = BX20 (bifeprunox 20 mg), visit printed as Baseline, APTS
[9] = BX30 (bifeprunox 30 mg), Last post-Baseline observation, APTS
[10] = BX30 (bifeprunox 30 mg), Month 3, APTS
[11] = BX30 (bifeprunox 30 mg), Month 6, APTS
[12] = BX30 (bifeprunox 30 mg), Week 6, APTS

O=c1[nH]c2cccc(N3CCN(Cc4cccc(-c5ccccc5)c4)CC3)c2o1 [Bifeprunox, 7-[4-([1,1′-biphenyl]-3-ylmethyl)-1-piperazinyl]-2(3H)-benzoxazolone]
patients with TEAEs related to EPS that led to withdrawal ([1]; BX20): 4 patients | weight decreased reported as a TEAE ([1]; BX20): 8% | AKATHISIA, % ([1]; BX20, APTS): (6.9) % | Choreoathetosis, % ([1]; BX20, APTS): (1.9) % | DYSKINESIA, % ([1]; BX20, APTS): (1.3) % | Dystonia, % ([1]; BX20, APTS): (0.6) % | EPS TEAEs: MUSCULOSKELETAL AND CONNECTIVE TISSUE DISORDERS, % ([1]; BX20, APTS): (0.6) % | EPS TEAEs: NERVOUS SYSTEM DISORDERS, % ([1]; BX20, APTS): (10.1) % | EXTRAPYRAMIDAL DISORDER, % ([1]; BX20, APTS): (0.6) % | Muscle rigidity, % ([1]; BX20, APTS): (0.6) % | Patients with EPS TEAEs, % ([1]; BX20, APTS): (10.1) % | TREMOR, % ([1]; BX20, APTS): (0.6) % | proportion of patients with TEAEs related to EPS ([1]; BX20, APTS): 10% | patients with TEAEs related to EPS that led to withdrawal ([1]; BX30): 9 patients | weight decreased reported as a TEAE ([1]; BX30): 8% | weight increased reported as a TEAE ([1]; BX30): 1.2% | AKATHISIA, % ([1]; BX30, APTS): (4.7) % | Athetosis, % ([1]; BX30, APTS): (0.6) % | Choreoathetosis, % ([1]; BX30, APTS): (0.6) % | DYSKINESIA, % ([1]; BX30, APTS): (6.4) % | EPS TEAEs: MUSCULOSKELETAL AND CONNECTIVE TISSUE DISORDERS, % ([1]; BX30, APTS): (0.6) % | EPS TEAEs: NERVOUS SYSTEM DISORDERS, % ([1]; BX30, APTS): (14.5) % | EXTRAPYRAMIDAL DISORDER, % ([1]; BX30, APTS): (2.9) % | Muscle rigidity, % ([1]; BX30, APTS): (0.6) % | Patients with EPS TEAEs, % ([1]; BX30, APTS): (14.5) % | TREMOR, % ([1]; BX30, APTS): (2.9) % | proportion of patients with TEAEs related to EPS ([1]; BX30, APTS): 15% | PANSS negative subscale, Adjusted Mean Change from Baseline (LS mean) ([2]; Month 6, listed as BX20): −1.6 | PANSS negative subscale, Adjusted Mean Change from Baseline (LS mean) ([2]; Month 6, listed as BX30): −1.7 | PANSS negative subscale, Adjusted Mean Change from Baseline (LS mean) ([2]; Week 6, listed as BX20): −2.0 | PANSS negative subscale, Adjusted Mean Change from Baseline (LS mean) ([2]; Week 6, listed as BX30): −1.6 | mean PANSS negative subscale scores versus PBO, per-visit LOCF analysis ([2]; listed as BX): statistically significantly superior to that with PBO at all time points, except at Weeks 2 and 4 for the BX30 group | mean PANSS negative subscale scores versus PBO, per-visit LOCF analysis ([2]; listed as BX20): statistically significantly superior to that with PBO at all time points, except at Weeks 2 and 4 for BX30 | BMI, Mean [3, 4]: 24.3 | BMI, Median [3, 4]: 23.7 | Change from Baseline in BMI, Mean [3, 4]: −0.4 | Change from Baseline in BMI, Median [3, 4]: 0.0 | Change from Baseline in Weight, Mean [3, 4]: -1.0 kg | Change from Baseline in Weight, Median [3, 4]: 0.0 kg | Waist measurement, Mean [3, 4]: 81.6 | Waist measurement, Median [3, 4]: 79.5 | Weight PCS High (Increase from baseline >= 7%), (%) [3, 4]: (2.8) % | Weight PCS Low (Decrease from baseline >= 7%), (%) [3, 4]: (9.1) % | Weight, Mean [3, 4]: 69.7 kg | Weight, Median [3, 4]: 68.0 kg | BMI, Mean [3, 5]: 23.9 | BMI, Median [3, 5]: 23.1 | Change from Baseline in BMI, Mean [3, 5]: −0.2 | Change from Baseline in BMI, Median [3, 5]: 0.0 | Change from Baseline in Waist Measurement, Mean [3, 5]: −1.1 | Change from Baseline in Waist Measurement, Median [3, 5]: 0.0 | Change from Baseline in Weight, Mean [3, 5]: -0.6 kg | Change from Baseline in Weight, Median [3, 5]: 0.0 kg | Waist measurement, Mean [3, 5]: 79.5 | Waist measurement, Median [3, 5]: 76.5 | Weight PCS High (Increase from baseline >= 7%), (%) [3, 5]: (0.0) % | Weight, Mean [3, 5]: 68.1 kg | Weight, Median [3, 5]: 66.0 kg | BMI, Mean [3, 6]: 23.9 | BMI, Median [3, 6]: 23.1 | Change from Baseline in BMI, Mean [3, 6]: −0.2 | Change from Baseline in BMI, Median [3, 6]: 0.0 | Change from Baseline in Waist Measurement, Mean [3, 6]: −0.9 | Change from Baseline in Waist Measurement, Median [3, 6]: 0.0 | Change from Baseline in Weight, Mean [3, 6]: -0.6 kg | Change from Baseline in Weight, Median [3, 6]: 0.0 kg | Waist measurement, Mean [3, 6]: 79.4 | Waist measurement, Median [3, 6]: 77.7 | Weight PCS High (Increase from baseline >= 7%), (%) [3, 6]: (6.8) % | Weight PCS Low (Decrease from baseline >= 7%), (%) [3, 6]: (10.2) % | Weight, Mean [3, 6]: 68.2 kg | Weight, Median [3, 6]: 67.0 kg | BMI, Mean [3, 7]: 24.3 | BMI, Median [3, 7]: 23.8 | Change from Baseline in BMI, Mean [3, 7]: −0.2 | Change from Baseline in BMI, Median [3, 7]: 0.0 | Change from Baseline in Waist Measurement, Mean [3, 7]: −1.1 | Change from Baseline in Waist Measurement, Median [3, 7]: 0.0 | Change from Baseline in Weight, Mean [3, 7]: -0.6 kg | Change from Baseline in Weight, Median [3, 7]: 0.0 kg | Waist measurement, Mean [3, 7]: 81.6 | Waist measurement, Median [3, 7]: 78.0 | Weight PCS High (Increase from baseline >= 7%), (%) [3, 7]: (0.0) % | Weight PCS Low (Decrease from baseline >= 7%), (%) [3, 7]: (4.8) % | Weight, Mean [3, 7]: 69.7 kg | Weight, Median [3, 7]: 67.0 kg | Change from Baseline in Waist Measurement, Mean [3, 8]: −0.0 | Change from Baseline in Waist Measurement, Median [3, 8]: 0.0 | BMI, Mean [3, 9]: 24.5 | BMI, Median [3, 9]: 23.7 | Change from Baseline in BMI, Mean [3, 9]: −0.4 | Change from Baseline in BMI, Median [3, 9]: 0.0 | Change from Baseline in Waist Measurement, Mean [3, 9]: −0.4 | Change from Baseline in Waist Measurement, Median [3, 9]: 4.4 | Change from Baseline in Weight, Mean [3, 9]: -1.2 kg | Change from Baseline in Weight, Median [3, 9]: 0.0 kg | Waist measurement, Mean [3, 9]: 82.6 | Waist measurement, Median [3, 9]: 80.4 | Weight PCS High (Increase from baseline >= 7%), (%) [3, 9]: (2.7) % | Weight PCS Low (Decrease from baseline >= 7%), (%) [3, 9]: (9.5) % | Weight, Mean [3, 9]: 70.9 kg | Weight, Median [3, 9]: 68.5 kg | BMI, Mean [3, 10]: 24.4 | BMI, Median [3, 10]: 23.4 | Change from Baseline in BMI, Median [3, 10]: −0.1 | Change from Baseline in Waist Measurement, Mean [3, 10]: −0.4 | Change from Baseline in Waist Measurement, Median [3, 10]: 0.0 | Change from Baseline in Weight, Mean [3, 10]: -1.1 kg | Change from Baseline in Weight, Median [3, 10]: -0.5 kg | Waist measurement, Mean [3, 10]: 81.6 | Waist measurement, Median [3, 10]: 79.5 | Weight PCS Low (Decrease from baseline >= 7%), (%) [3, 10]: (11.4) % | Weight, Mean [3, 10]: 70.1 kg | Weight, Median [3, 10]: 68.0 kg | BMI, Mean [3, 11]: 24.4 | BMI, Median [3, 11]: 23.7 | Change from Baseline in BMI, Mean [3, 11]: −0.0 | Change from Baseline in BMI, Median [3, 11]: 0.0 | Change from Baseline in Waist Measurement, Mean [3, 11]: −0.0 | Change from Baseline in Waist Measurement, Median [3, 11]: 0.1 | Change from Baseline in Weight, Mean [3, 11]: -0.1 kg | Change from Baseline in Weight, Median [3, 11]: 0.0 kg | Waist measurement, Mean [3, 11]: 81.1 | Waist measurement, Median [3, 11]: 78.0 | Weight PCS High (Increase from baseline >= 7%), (%) [3, 11]: (7.3) % | Weight PCS Low (Decrease from baseline >= 7%), (%) [3, 11]: (7.3) % | Weight, Mean [3, 11]: 71.4 kg | Weight, Median [3, 11]: 70.0 kg | BMI, Mean [3, 12]: 24.8 | BMI, Median [3, 12]: 23.9 | Change from Baseline in BMI, Mean [3, 12]: −0.3 | Change from Baseline in BMI, Median [3, 12]: 0.0 | Change from Baseline in Waist Measurement, Mean [3, 12]: −0.0 | Change from Baseline in Waist Measurement, Median [3, 12]: 0.0 | Change from Baseline in Weight, Mean [3, 12]: -0.9 kg | Change from Baseline in Weight, Median [3, 12]: 0.0 kg | Waist measurement, Mean [3, 12]: 83.9 | Waist measurement, Median [3, 12]: 80.0 | Weight PCS High (Increase from baseline >= 7%), (%) [3, 12]: (0.0) % | Weight PCS Low (Decrease from baseline >= 7%), (%) [3, 12]: (4.7) % | Weight, Mean [3, 12]: 72.2 kg | Weight, Median [3, 12]: 70.0 kg
